Data published in patent US8178688B2, “Benzamidine derivatives, process for the preparation thereof and pharmaceutical composition comprising the same” (Dong Wha Pharmaceutical Co., Ltd., priority 2004, dated 2012).

These compounds were tested on osteoclast differentiation (assay: Inhibitory effects on osteoclast differentiation (co-culture of bone marrow cells with osteoblast, TRAP staining)). Settings: Mus musculus, Osteoclast, 168 h; 1 m; co-culture of bone marrow cells and osteoblast, 7 days, TRAP-positive osteoclasts versus controls; read-out: % inhibitory activity on osteoclastogenesis.
Assay type: cell-based, mice
Description: The effect of benzamidine derivatives of the present invention on osteoclast proliferation and differentiation process was evaluated via co-culture with osteoblast.
Tibia and Femora were aseptically ectomized from male ddY mice of 6-8 weeks to harvest bone marrow cells by using a syringe (21G, Korea Green Cross).
The bone marrow cells were suspended in 5 mL α-MEM medium (Gibco BRL Co.) containing sodium bicarbonate (2.0 g/L), streptomycin (100 mg/L) and penicillin ([…]). The harvested cells were centrifuged at 600×g for 5 mins to collect the whole quantity. To remove the red blood cells within bone marrow cells, 3 mL of Tris HCl (0.83% NH4Cl, pH7.5) was added and well mixed. After centrifuging above cells, the numbers of bone marrow cells were counted and then, the bone marrow cells were immediately used for co-culture system with osteoblast.
The calvaria were aseptically ectomized from neonate ICR mice of 1˜2 days, washed with PBS solution and incubated with a mixture of enzyme solution (0.2% collagenase and 0.1% dispase) at 37° C. gentle shaker. This procedure was sequentially repeated (10, 10, 10, 20, 20 and 20 mins), and then the calvaria cells having the characteristics of osteoblast mostly released from III-VI digestion groups were collected and washed with the medium (serum-free α-MEM). The washed cells were cultivated in α-MEM medium containing 10% FBS for 2˜3 days. After subculturing, these cells were used for this experiment, and diluted to reach the concentration of 1×10^6 cell/mL for storage at −70° C.
Benzamidine derivatives of the present invention were dissolved in a sterile distilled water or ethanol to make desired concentrations following dilution. The final volume of specimen added to the medium was determined at the ratio of 1:1000.
Bone marrow cells prepared, in the above and osteoblast from calvaria were co-cultured for osteoclast differentiation. Both bone marrow cells (25,000 cells/cm^2) and osteoblast (10,000 cells/cm^2) were plated on a 96 well plate in α-MEM medium containing FBS with specimen, and then cultured with test materials for 7 days. Differentiation factors, such as dexamethasone (10^−7M) and vitamin D3 (10^−8M), were also continuously added to the medium from the first day of cultivation. The medium was changed with fresh media containing a mixture of specimens and differentiation factors every 2˜3 day.
TRAP was used as a marker to measure osteoclast in consideration of its characteristics showing a positive reaction to TRAP staining solution. TRAP staining solution was prepared in a manner that 5 mg of naphtol AS-MS phosphate (sigma N-4875), a substrate and 25 mg of coloring agent (Fast Red Violet LB salt) were dissolved in N,N-dimethylformamide (about 0.5 mL), 0.1N NaHCO3 buffer solution (50 mL) containing 50 mM tartaric acid was added, and the reaction mixture was stored at refrigerator prior to use.
After culturing the cells for 7 days, the medium was removed from the wells, the cells were once washed with PBS solution and fixed to PBS containing 10% formalin for 2˜5 mins. The cells were fixed again in a mixed solution of ethanol and acetone (1/1) for about 1 min, and dried off. The cells were further treated by TRAP staining solution for 15 mins and washed with PBS. The experimental results were measured by counting the number of osteoclasts with 3 or more nuclei showing TRAP-positive reaction under a microscopic examination. Each of tests was confirmed over three times for gaining more reliable data.
As shown in the following table 7, the inhibitory effect of each experimental group on the differentiation of osteoclast versus controls was expressed by inhibitory percentage value.
`Cc1sc(NC(=O)CO)nc1-c1ccc(OCCCCCOc2ccc(C(=N)NO)cc2)cc1` [Example 90, N-hydroxy-4-(5-[4-(2-hydroxyacetylamino-5-methyl-1,3-thiazol-4-yl)phenoxy]pentoxy)-benzamidine] gave an inhibition at 1 µM of 61.9%. `Cc1sc(NC(=O)c2cccnc2)nc1-c1ccc(OCCCCCOc2ccc(C(=N)NO)cc2)cc1` [Example 92, N-hydroxy-4-(5-[4-(5-methyl-2-(3-pyridylcarbonyl)amino-1,3-thiazol-4-yl)phenoxy]pentoxy)-benzamidine] was tested, and the inhibition at 1 µM was 49%. In the case of `COCCNc1nc(-c2ccc(OCCCCCOc3ccc(C(=N)NO)cc3)cc2)c(C)s1` [Example 94, N-hydroxy-4-(5-(4-(2-(2-methoxyethyl)amino-5-methyl-1,3-thiazol-4-yl)phenoxy]pentoxy)-benzamidine], the inhibition at 1 µM was 77.2%. In the case of `CCc1sc(NS(=O)(=O)CC)nc1-c1ccc(OCCCCCOc2ccc(C(=N)NO)cc2)cc1` [Example 95, N-hydroxy-4-(5-[4-(2-ethanesulfonylamino-5-ethyl-1,3-thiazol-4-yl)phenoxy]pentoxy)-benzamidine], the inhibition at 1 µM was 47.1%. `CCNc1nc(-c2ccc(OCCCCCOc3ccc(C(=N)NO)cc3)cc2)c(CC)s1` [Example 97, N-hydroxy-4-(5-[4-(5-ethyl-2-ethylamino-1,3-thiazol-4-yl)phenoxy]pentoxy)-benzamidine] showed an inhibition at 1 µM of 42.6%. Work on `CCc1sc(NC(=O)c2cccnc2)nc1-c1ccc(OCCCCCOc2ccc(C(=N)NO)cc2)cc1` [Example 101, N-hydroxy-4-(5-[4-(5-ethyl-2-(3-pyridylcarbonyl)amino-1,3-thiazol-4-yl)phenoxy]pentoxy)-benzamidine] yielded an inhibition at 1 µM of 43.7%. For `CCc1sc(NCCOC)nc1-c1ccc(OCCCCCOc2ccc(C(=N)NO)cc2)cc1` [Example 102, N-hydroxy-4-(5-[4-(5-ethyl-2-(2-methoxyethyl)amino-1,3-thiazol-4-yl)phenoxy]pentoxy)-benzamidine], the inhibition at 1 µM was 96.4%. Compound `CNc1nc(-c2ccc(OCCCCCOc3ccc(C(=N)NO)cc3)cc2)c(C(C)C)s1` [Example 103, N-hydroxy-4-(5-[4-(5-isopropyl-2-methylamino-1,3-thiazol-4-yl)phenoxy]pentoxy)-benzamidine] has an inhibition at 1 µM of 25.4%. `CCNc1nc(-c2ccc(OCCCCCOc3ccc(C(=N)NO)cc3)cc2)c(C(C)C)s1` [Example 104, N-hydroxy-4-(5-[4-(2-ethylamino-5-isopropyl-1,3-thiazol-4-yl)phenoxy]pentoxy)-benzamidine] gave an inhibition at 1 µM of 40%. Work on `CCCCc1sc(NC)nc1-c1ccc(OCCCCCOc2ccc(C(=N)NO)cc2)cc1` [Example 105, N-hydroxy-4-(5-[4-(5-butyl-2-methylamino-1,3-thiazol-4-yl)phenoxy]pentoxy)-benzamidine] yielded an inhibition at 1 µM of 61.1%. Work on `CCCCc1sc(NCC)nc1-c1ccc(OCCCCCOc2ccc(C(=N)NO)cc2)cc1` [Example 106, N-hydroxy-4-(5-[4-(5-butyl-2-ethylamino-1,3-thiazol-4-yl)phenoxy]pentoxy)-benzamidine] yielded an inhibition at 1 µM of 0%. In the case of `CCNc1nc(-c2ccc(OCCCCCOc3ccc(C(=N)NO)cc3)cc2)c(Cc2ccccc2)s1` [Example 108, N-hydroxy-4-(5-[4-(5-benzyl-2-ethylamino-1,3-thiazol-4-yl)phenoxy]pentoxy)-benzamidine], the inhibition at 1 µM was 25.4%. For `CCCNc1nc(-c2ccc(OCCCCCOc3ccc(C(=N)NO)cc3)cc2)c(C2CCCC2)s1` [Example 113, N-hydroxy-4-(5-[4-(5-cyclopentyl-2-propylamino-1,3-thiazol-4-yl)phenoxy]pentoxy)-benzamidine], the inhibition at 1 µM was 86.7%. For `CC(C)c1sc(NCc2cccnc2)nc1-c1ccc(OCCCCCOc2ccc(C(=N)NO)cc2)cc1` [Example 114, N-hydroxy-4-(5-[4-(5-isopropyl-2-[(pyridin-3-yl-methyl)amino]-1,3-thiazol-4-yl)phenoxy]pentoxy)-benzamidine], the inhibition at 1 µM was 50.9%. `CNc1nc(-c2ccc(OCCCCCOc3ccc(C(=N)NO)cc3)cc2)cs1` [Example 116, N-hydroxy-4-(5-[4-(2-methylamino-1,3-thiazol-4-yl)phenoxy]pentoxy)-benzamidine] was tested, and the inhibition at 1 µM was 51.3%. `COCCN(CCOC)c1nc(-c2ccc(OCCCCCOc3ccc(C(=N)NO)cc3)cc2)c(C)s1` [Example 122, N-hydroxy-4-(5-[4-(2-(bis-(2-methoxyethyl)-amino)-5-methyl-1,3-thiazol-4-yl)phenoxy]pentoxy)-benzamidine] gave an inhibition at 1 µM of 55.8%. In the case of `Cc1sc(N(C)CCN2CCOCC2)nc1-c1ccc(OCCCCCOc2ccc(C(=N)NO)cc2)cc1` [Example 123, N-hydroxy-4-(5-[4-(5-methyl-2-(methyl-(2-morpholinoethyl)-amino)-1,3-thiazol-4-yl)phenoxy]pentoxy)-benzamidine], the inhibition at 1 µM was 26.3%. In the case of `CCN(Cc1ccccc1)c1nc(-c2ccc(OCCCCCOc3ccc(C(=N)NO)cc3)cc2)c(C)s1` [Example 127, N-hydroxy-4-(5-[4-(2-(benzyl-ethyl-amino)-5-methyl-1,3-thiazol-4-yl)phenoxy]pentoxy)-benzamidine], the inhibition at 1 µM was 41.5%. Work on `Cc1sc(N(CCO)CCO)nc1-c1ccc(OCCCCCOc2ccc(C(=N)NO)cc2)cc1` [Example 128, N-hydroxy-4-(5-[4-(2-(bis-(2-hydroxyethyl)-amino)-5-methyl-1,3-thiazol-4-yl)phenoxy]pentoxy)-benzamidine] yielded an inhibition at 1 µM of 75.5%. `CCc1sc(N(C)CCN2CCOCC2)nc1-c1ccc(OCCCCCOc2ccc(C(=N)NO)cc2)cc1` [Example 131, N-hydroxy-4-(5-[4-(5-ethyl-2-(methyl-(2-morpholinoethyl)-amino)-1,3-thiazol-4-yl)phenoxy]pentoxy)-benzamidine] was tested, and the inhibition at 1 µM was 69%. `CCc1sc(N(CC)Cc2ccccc2)nc1-c1ccc(OCCCCCOc2ccc(C(=N)NO)cc2)cc1` [Example 135, N-hydroxy-4-(5-[4-(2-(benzyl-ethyl-amino)-5-ethyl-1,3-thiazol-4-yl)phenoxy]pentoxy)-benzamidine] showed an inhibition at 1 µM of 48.6%. With `CC(C)c1sc(N(C)CCO)nc1-c1ccc(OCCCCCOc2ccc(C(=N)NO)cc2)cc1` [Example 140, N-hydroxy-4-(5-[4-(2-((2-hydroxyethyl)-methyl-amino)-5-isopropyl-1,3-thiazol-4-yl)phenoxy]pentoxy)-benzamidine] the inhibition at 1 µM was 18.9%. `CCS(=O)(=O)N(C)c1nc(-c2ccc(OCCCCCOc3ccc(C(=N)NO)cc3)cc2)c(C(C)C)s1` [Example 142, N-hydroxy-4-(5-[4-(2-(ethanesulfonyl-methyl-amino)-5-isopropyl-1,3-thiazol-4-yl)phenoxy]pentoxy)-benzamidine] gave an inhibition at 1 µM of 54.1%. Compound `CCCCc1sc(N(C)CCO)nc1-c1ccc(OCCCCCOc2ccc(C(=N)NO)cc2)cc1` [Example 143, N-hydroxy-4-(5-[4-(5-butyl-2-((2-hydroxyethyl)-methyl-amino)-1,3-thiazol-4-yl)phenoxy]pentoxy)-benzamidine] has an inhibition at 1 µM of 69.5%. With `CCCCc1sc(N(C)CCN2CCOCC2)nc1-c1ccc(OCCCCCOc2ccc(C(=N)NO)cc2)cc1` [Example 144, N-hydroxy-4-(5-[4-(5-butyl-2-(methyl-(2-morpholinoethyl)amino)-1,3-thiazol-4-yl)phenoxy]pentoxy)-benzamidine] the inhibition at 1 µM was 94.4%. With `CN(CCN1CCOCC1)c1nc(-c2ccc(OCCCCCOc3ccc(C(=N)NO)cc3)cc2)c(CC2CCCC2)s1` [Example 148, N-hydroxy-4-(5-[4-(5-cyclopentylmethyl-2-(methyl-(2-morpholinoethyl)amino)-1,3-thiazol-4-yl)phenoxy]pentoxy)-benzamidine] the inhibition at 1 µM was 90.1%.

Same assay, conditions: co-culture of bone marrow cells and osteoblast, 7 days, TRAP-positive osteoclasts versus controls
In the case of `CCc1sc(NCc2cccnc2)nc1-c1ccc(OCCCCCOc2ccc(C(=N)NO)cc2)cc1` [Example 117], the “% inhibitory activity on osteoclastogenesis” value was 2.7%. In the case of `CCc1sc(N(Cc2cccnc2)Cc2cccnc2)nc1-c1ccc(OCCCCCOc2ccc(C(=N)NO)cc2)cc1` [Example 137], the “% inhibitory activity on osteoclastogenesis” value was 62.7%.
